Test results from patent publication US20160002247A1, “8-SUBSTITUTED IMIDAZOPYRIMIDINONE DERIVATIVE HAVING AUTOTAXIN INHIBITORY ACTIVITY” (THE UNIVERSITY OF TOKYO, priority 2013, published 2016).

What follows are compounds tested against T1, Human autotaxin enzyme (Homo sapiens, UniProt Q13822) (assay: Evaluation of autotaxin inhibitor, Method C (Test Example 3): 18:0 Lyso PC, choline assay, Resorufin fluorescence). Conditions: Assay Method C (Test Example 3), human autotaxin, 18:0 Lyso PC substrate; read-out: Inhibitory Activity (autotaxin enzyme inhibitory activity, IC50 class).
T1 construct: purchased R&D System
Type: biochemical
Summary of the method: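 Human autotaxin in Tris-HCl pH 7.5, 150 mM NaCl, 5 mM MgCl2, 0.05% Triton X-100 reacted 2 h at room temperature with 18:0 Lyso PC (200 μM solution added). Released choline detected via choline oxidase/peroxidase/Amplex-type reagent, resorufin fluorescence (ex 531/em 598 nm); inhibition vs no-compound and no-enzyme controls, concentration-response curve.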

| IC50 | SMILES |
| --- | --- |
| < 10 nM | CCCCCn1c(N2CCC[C@H]2C(=O)NC2(C(=O)O)CC2)cc(=O)n2cc(-c3ccc(Cl)cc3)nc12 [Compound 679] |
| < 10 nM | CCCCCn1c(OC2CN(CC(=O)O)C2)cc(=O)n2cc(-c3ccc(Cl)cc3)nc12 [Compound 577] |
| < 10 nM | CCCCCn1c(-c2ccc(C(=O)NCCc3ccc(S(C)(=O)=O)cc3)cc2)cc(=O)n2cc(-c3ccc(Cl)cc3)nc12 [Compound 512] |
| 10 to 100 nM | CCCCCn1c(N2CCN(C(=O)c3ccc(O)cc3)CC2)cc(=O)n2cc(-c3ccc(Cl)cc3)nc12 [Compound 713] |
| 100 to 1000 nM | CCCCCn1c(N(CCOCCOC)C(C)=O)cc(=O)n2cc(-c3ccc(Cl)cc3)nc12 [Compound 562] |
| 10 to 100 nM | CCCCCn1c(N(C)CC(=O)NCCC(=O)O)cc(=O)n2cc(-c3ccc(Cl)cc3)nc12 [Compound 618] |
| 10 to 100 nM | CCCCCn1c(N(CCC)C(C)=O)cc(=O)n2cc(-c3ccc(Cl)cc3)nc12 [Compound 560] |
| 100 to 1000 nM | CCCCCn1c(N2CCC(N3CC(C(=O)OC(C)(C)C)C3)C2)cc(=O)n2cc(-c3ccc(Cl)cc3)nc12 (stereo not shown) [Compound 324] |
| 10 to 100 nM | CCCCCn1c(O[C@H]2CCN(CC(=O)O)C2)cc(=O)n2cc(-c3ccc(Cl)cc3)nc12 [Compound 575] |
| 100 to 1000 nM | NC(=O)c1ccc(-c2cc(=O)n3cc([C@H]4CC[C@H](C(F)(F)F)CC4)nc3n2CCCC(F)(F)F)cc1 [Compound 136, 4-(5-oxo-8-(4,4,4-trifluorobutyl)-2-((1r,4r)-4-(trifluoromethyl)cyclohexyl)-5,8-dihydroimidazo[1,2-a]pyrimidine-7-yl)benzamide] |
| > 1000 nM | CCCCCn1c(N2CCC[C@@]2(C)C(=O)NCC(=O)O)cc(=O)n2cc(-c3ccc(Cl)cc3)nc12 [Compound 635] |
| 10 to 100 nM | CCCCCn1c(N2CCCC[C@@H]2C(=O)NCCC(=O)O)cc(=O)n2cc(-c3ccc(Cl)cc3)nc12 [Compound 626] |
| < 10 nM | CCCCCn1c(N2CCC[C@H]2C(=O)NCC(=O)O)cc(=O)n2cc(-c3ccc(Cl)cc3)nc12 [Compound 348] |
| 10 to 100 nM | CCCCCn1c(N2CCCC[C@H]2C(=O)NCC(=O)O)cc(=O)n2cc(-c3ccc(Cl)cc3)nc12 [Compound 633] |
| < 10 nM | CCCCCn1c(N(Cc2ccc(C(=O)O)cc2)C(C)=O)cc(=O)n2cc(-c3ccc(Cl)cc3)nc12 [Compound 569] |
| 100 to 1000 nM | CCCCCn1c(N2CCN(C(=O)OC(C)(C)C)CC2)cc(=O)n2cc(-c3ccc(Cl)cc3)nc12 [Compound 682] |
| 10 to 100 nM | CN(C)CCNC(=O)c1ccc(-c2cc(=O)n3cc(-c4ccc(C#N)cc4)nc3n2CCCC(F)(F)F)cc1 [Compound 387] |
| 100 to 1000 nM | CCCCCn1c(-c2ccccn2)cc(=O)n2cc(-c3ccc(Cl)cc3)nc12 [Compound 528] |
| 100 to 1000 nM | CCCCCn1c(OC2CCN(CCN3CCOCC3)CC2)cc(=O)n2cc(-c3ccc(Cl)cc3)nc12 [Compound 542] |
| 100 to 1000 nM | CCCCCn1c(N2CCN(S(=O)(=O)N3CCOCC3)CC2)cc(=O)n2cc(-c3ccc(Cl)cc3)nc12 [Compound 296] |

| IC50 | SMILES |
| --- | --- |
| 10 to 100 nM | CCCCCn1c(-c2ccc(F)nc2)cc(=O)n2cc(-c3ccc(Cl)cc3)nc12 [Compound 457] |
| 10 to 100 nM | CCCCCn1c(N2CCC[C@H]2C(=O)NCCCCCCN(C)C)cc(=O)n2cc(-c3ccc(Cl)cc3)nc12 [Compound 651] |
| < 10 nM | O=C(O)[C@H](Cc1ccccc1)NC(=O)[C@@H]1CCCN1c1cc(=O)n2cc(-c3ccc(Cl)cc3)nc2n1Cc1ccccc1 [Compound 743] |
| > 1000 nM | CCCCCn1c(N2CCC[C@H]2C(=O)O)cc(=O)n2cc(-c3ccc(Cl)cc3)nc12 [Compound 334] |
| 10 to 100 nM | CCCCCn1c(-c2ccc(C(=O)NC[C@@H](O)CO)cc2)cc(=O)n2cc(-c3ccc(Cl)cc3)nc12 [Compound 504] |
| 10 to 100 nM | CCCCCn1c(N2CCC[C@@H](C(=O)O)C2)cc(=O)n2cc(-c3ccc(Cl)cc3)nc12 [Compound 608] |
| 10 to 100 nM | CCCCCn1c(-c2ccc(C(=O)Nc3ncco3)cc2)cc(=O)n2cc(-c3ccc(Cl)cc3)nc12 [Compound 488] |
| > 1000 nM | CCCCCn1c(N2CCC[C@H]2C(=O)NCCCNC)cc(=O)n2cc(-c3ccc(Cl)cc3)nc12 [Compound 661] |
| 10 to 100 nM | CCCCCn1c(C)c(CC(=O)OCC)c(=O)n2cc(-c3ccc(Cl)cc3)nc12 [Compound 202] |
| 100 to 1000 nM | CCCCCn1c(O[C@@H]2CCN(C(=O)OC(C)(C)C)C2)cc(=O)n2cc(-c3ccc(Cl)cc3)nc12 [Compound 550] |
| 10 to 100 nM | CCCCCn1c(-c2ccc3ncsc3c2)cc(=O)n2cc(-c3ccc(Cl)cc3)nc12 [Compound 450] |
| < 10 nM | CC(C)(NC(=O)[C@@H]1C[C@@H](O)CN1c1cc(=O)n2cc(-c3ccc(Cl)cc3)nc2n1Cc1ccccc1)C(=O)O [Compound 753] |
| > 1000 nM | Cn1c(N2C[C@H](O)C[C@H]2C(=O)NCC(=O)O)cc(=O)n2cc(-c3ccc(Cl)cc3)nc12 [Compound 773] |
| 10 to 100 nM | CCCCCn1c(-c2ccc(C(=O)NC3CN(C)C3)cc2)cc(=O)n2cc(-c3ccc(Cl)cc3)nc12 [Compound 489] |
| 100 to 1000 nM | CCCCCn1c(NCC2(CO)COC2)cc(=O)n2cc(-c3ccc(Cl)cc3)nc12 [Compound 714] |
| < 10 nM | CCCCCn1c(N2C[C@@H](O)C[C@H]2C(=O)N[C@@H](CCc2ccccc2)C(=O)O)cc(=O)n2cc(-c3ccc(Cl)cc3)nc12 [Compound 777] |
| 10 to 100 nM | CCCCCn1c(OC2CN(C(=O)CN3CCOCC3)C2)cc(=O)n2cc(-c3ccc(Cl)cc3)nc12 [Compound 543] |
| 10 to 100 nM | CN(C)CCNC(=O)c1ccc(-c2cc(=O)n3cc(-c4ccc(C(F)(F)F)cc4)nc3n2CCCCC#N)cc1 [Compound 377] |
| 10 to 100 nM | CCCCCn1c(N2CCC[C@H]2C(=O)N(C)CCCO)cc(=O)n2cc(-c3ccc(Cl)cc3)nc12 [Compound 346] |
| 100 to 1000 nM | CCCCCn1c(N2CCC[C@H]2C(=O)N2CCCC(C(N)=O)C2)cc(=O)n2cc(-c3ccc(Cl)cc3)nc12 (stereo partly shown) [Compound 695] |

| IC50 | SMILES |
| --- | --- |
| 10 to 100 nM | CCn1c(N2CCC[C@H]2C(=O)N[C@H](C(=O)O)C(C)(C)C)cc(=O)n2cc(-c3ccc(Cl)cc3)nc12 [Compound 758] |
| 10 to 100 nM | CCCCCn1c(O[C@H]2CCN(CCC(=O)OC(C)(C)C)C2)cc(=O)n2cc(-c3ccc(Cl)cc3)nc12 [Compound 578] |
| 100 to 1000 nM | CCCCCn1c(N2CCC3CNCC32)cc(=O)n2cc(-c3ccc(Cl)cc3)nc12 (stereo not shown) [Compound 329] |
| < 10 nM | CCCCCn1c(-c2ccc(C(=O)NCC(O)CO)cc2)cc(=O)n2cc(-c3ccc(Cl)cc3)nc12 (stereo not shown) [Compound 487] |
| 100 to 1000 nM | Cn1c(N2CCC[C@H]2C(=O)N[C@H](C(=O)O)C(C)(C)C)cc(=O)n2cc(-c3ccc(Cl)cc3)nc12 [Compound 770] |
| 10 to 100 nM | CCCCCn1c(-c2cnc(O)nc2)cc(=O)n2cc(-c3ccc(Cl)cc3)nc12 [Compound 463] |
| 100 to 1000 nM | CCCCCn1c(N2CCC[C@@]2(C)C(=O)NCCC(=O)O)cc(=O)n2cc(-c3ccc(Cl)cc3)nc12 [Compound 623] |
| 100 to 1000 nM | CCCCCn1c(-c2ccc(C(=O)NC(C)(C)C)cc2)cc(=O)n2cc(-c3ccc(Cl)cc3)nc12 [Compound 468] |
| < 10 nM | O=C(O)[C@H](Cc1ccccc1)NC(=O)[C@@H]1C[C@@H](O)CN1c1cc(=O)n2cc(-c3ccc(Cl)cc3)nc2n1Cc1ccccc1 [Compound 749] |
| > 1000 nM | CCCCCn1c(N2CCC(CCc3ccccc3)C2)cc(=O)n2cc(-c3ccc(Cl)cc3)nc12 (stereo not shown) [Compound 322] |
| 10 to 100 nM | CCCCCn1c(-c2cccc(C(C)=O)c2)cc(=O)n2cc(-c3ccc(Cl)cc3)nc12 [Compound 447] |
| > 1000 nM | CCCCCn1c(NC2(C(=O)NCC(=O)O)CC2)cc(=O)n2cc(-c3ccc(Cl)cc3)nc12 [Compound 637] |
| < 10 nM | CCCCCn1c(N2CCC[C@H]2C(=O)NCC(C)C(=O)O)cc(=O)n2cc(-c3ccc(Cl)cc3)nc12 (stereo partly shown) [Compound 355] |
| 100 to 1000 nM | CCCCCn1c(N2CCC[C@H]2C(=O)N[C@@H]2CNC(=O)C2)cc(=O)n2cc(-c3ccc(Cl)cc3)nc12 [Compound 705] |
| 100 to 1000 nM | Cn1c(N2C[C@H](O)C[C@H]2C(=O)N[C@@H](Cc2ccccc2)C(=O)O)cc(=O)n2cc(-c3ccc(Cl)cc3)nc12 [Compound 772] |
| 10 to 100 nM | CCCCCn1c(-c2ccc(C(=O)NCCC(=O)N3CCOCC3)cc2)cc(=O)n2cc(-c3ccc(Cl)cc3)nc12 [Compound 517] |
| > 1000 nM | CCCCCn1c(/N=C(\C)OCc2ccc(C(=O)OC)cc2)cc(=O)n2cc(-c3ccc(Cl)cc3)nc12 [Compound 567] |
| 100 to 1000 nM | CCCCCn1c(N2CCC[C@H]2C(=O)N[C@H]2CCCCNC2=O)cc(=O)n2cc(-c3ccc(Cl)cc3)nc12 [Compound 707] |
| 10 to 100 nM | CCCCCn1c(-c2ccc(C(=O)N3CCOCC3)cc2)cc(=O)n2cc(-c3ccc(Cl)cc3)nc12 [Compound 473] |

Same assay, conditions: Assay Method C, human autotaxin, 18:0 Lyso PC substrate; read-out: Inhibitory Activity

| IC50 | SMILES |
| --- | --- |
| > 1000 nM | O=C(Cc1cn(CCCC(F)(F)F)c2nc(-c3ccc(Cl)cc3)cn2c1=O)N(CCO)CCO [Compound 833] |
| 10 to 100 nM | CCCCCn1c(N2CCC[C@H]2C(=O)Nc2nn[nH]n2)cc(=O)n2cc(-c3ccc(Cl)cc3)nc12 [Compound 783] |
| > 1000 nM | NC(=O)CNC(=O)Cc1cn(CCCC(F)(F)F)c2nc(-c3ccc(Cl)cc3)cn2c1=O [Compound 841] |
| 100 to 1000 nM | Cc1noc(CNC(=O)Cc2cn(CCCC(F)(F)F)c3nc(-c4ccc(Cl)cc4)cn3c2=O)n1 [Compound 863] |
| > 1000 nM | CCCCCn1c(N2CCC[C@@H](c3ccccc3)C2)cc(=O)n2cc(-c3ccc(Cl)cc3)nc12 [Compound 813] |
| 100 to 1000 nM | CCCCCn1c(N2CCC[C@H]2C(=O)Nc2ccc(O)c(OC)c2)cc(=O)n2cc(-c3ccc(Cl)cc3)nc12 [Compound 793] |

Same assay, conditions: Assay Method: Method C (Test Example 3); read-out: Inhibitory Activity (Enzyme Inhibitory Activity, IC50)

| IC50 | SMILES |
| --- | --- |
| > 1000 nM | CCC(O)CCn1c(C)cc(=O)n2cc(-c3ccc(Cl)cc3)nc12 (stereo not shown) [Compound 47] |
| > 1000 nM | CCC(=O)CCn1c(C)cc(=O)n2cc(-c3ccc(Cl)cc3)nc12 [Compound 48] |
